Assay results from patent US20170114346A1, “GENE EXPRESSION SYSTEM AND […]” (priority 2014, published 2017).

System: 6-OHDA lesioned rats (striatum)
Assay: Experiment 1 online microdialysis in anesthetized rats (baseline, NSD-1015, NSD+TMP)
Type: in vivo, rat
Protocol: The second microdialysis protocol in Experiment 1 (identical microdialysis methods and protocols were used in the pilot study) was performed in anaesthetized animals was performed in TH+DD-GCH1 treated animals that received oral TMP administration in their drinking water at least 2 weeks prior sampling; either 0.5 mg/ml (n=4) or 2 mg/ml (n=5) (same TMP emulsion that was administered to the animals followed with behavior tests). In addition, this experiment also included animals from the TH+GCH1 (n=3), Les-Sham (n=2) and intact control (n=3) groups. Probe placement was calculated to position the membrane of the probe in the center of the transduction area in striatum, which corresponded to the coordinates: AP: +0.5 mm; ML: −3.7 mm and DV: −5.7 mm with the tooth bar set to −2.4 mm. […] Samples were analyzed readily as described for the first microdialysis experiment. After the last sample was collected the animal was terminated and brain tissue taken for histology.

**Q.** For `COc1cc(Cc2cnc(N)nc2N)cc(OC)c1OC` [TMP, trimethoprim], which “biochemical reconstitution with oral TMP” value (0.5 and 2.0 mg/ml TMP in drinking water, TH+DD-GCH1 treated rats) is on record?
**A.** both were effective in reaching a similar biochemical reconstitution

**Q.** What about the “DOPA levels after addition of TMP to the ringer solution” value (2E-5 M TMP lactate plus NSD-1015 via probe for 2 h, after 2 weeks oral TMP) of the same compound?
**A.** did not further increase the DOPA levels
